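Values below derive from 48-hour exposures of cells grown in 96-well plates, with endpoints linearly interpolated between the two concentrations bracketing the appropriate inhibition level. GI50: concentration for 50% inhibition of growth. TGI is the concentration that stops growth completely.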
Tests used:
Experiment in all cases: NCI-60 cell line screen, 48 h
OVCAR-4 ovarian = test system: OVCAR-4 ovarian
HOP-92 NSCLC = test system: HOP-92 NSCLC
ACHN renal = test system: ACHN renal
RXF 393 renal = test system: RXF 393 renal
CCRF-CEM leukemia = test system: CCRF-CEM leukemia
HCT-15 colon = test system: HCT-15 colon
KM12 colon = test system: KM12 colon
NCI-H522 lung = test system: NCI-H522 lung
U251 CNS = test system: U251 CNS
NCI/ADR-RES ovarian = test system: NCI/ADR-RES ovarian

Compound | TGI (OVCAR-4 ovarian) [µM] | TGI (HOP-92 NSCLC) [µM] | TGI (ACHN renal) [µM] | TGI (RXF 393 renal) [µM] | TGI (CCRF-CEM leukemia) [µM] | TGI (HCT-15 colon) [µM] | TGI (KM12 colon) [µM] | TGI (NCI-H522 lung) [µM] | TGI (U251 CNS) [µM] | GI50 (OVCAR-4 ovarian) [µM] | GI50 (HOP-92 NSCLC) [µM] | GI50 (ACHN renal) [µM] | GI50 (RXF 393 renal) [µM] | GI50 (NCI/ADR-RES ovarian) [µM] | TGI (NCI/ADR-RES ovarian) [µM] | GI50 (CCRF-CEM leukemia) [µM] | GI50 (HCT-15 colon) [µM] | GI50 (KM12 colon) [µM] | GI50 (U251 CNS) [µM] | GI50 (NCI-H522 lung) [µM]
OC1CC(O)O[C@H](c2ccccc2)C1 (stereo not given in full) | > 100 | > 100 | > 100 | > 100 | > 100 | > 100 | > 100 |  |  |  |  |  |  |  |  |  |  |  |  | 
CC(=O)Oc1ccc2c(=O)c(C(C)=O)coc2c1 | > 100 | > 100 | > 100 | > 100 | > 100 | > 100 | > 100 | > 100 | > 100 |  |  |  |  |  |  |  |  |  |  | 
O=C(c1ccccc1)n1cc(/C=C/[N+](=O)[O-])c2ccccc21 | 77.3 | 54.1 | > 100 | 36.9 | 35.1 | 39.8 | 32.5 | 28.8 | 33.3 |  |  |  |  |  |  |  |  |  |  | 
CCN(N=O)C1C2(CCCC2)NC(=O)C12CCCC2 (stereo not given) | > 100 |  | > 100 | > 100 | > 100 | > 100 | > 100 |  | > 100 |  |  |  |  |  |  |  |  |  |  | 
COc1ccc2c(c1)OCC1c3cc(OC)c4ccccc4c3OC21 (stereo not given) | > 100 | > 100 | > 100 | 46 | > 100 | > 100 | > 100 |  | 67 | 16.5 | 22.3 | 27.4 | 9.41 | 4 | 28.2 | 16.2 | 6.06 | 4.82 | 9.95 | 
COc1cccc(C(=O)NNc2nc(Cl)nc(N3CCN(C(c4ccccc4)c4ccccc4)CC3)n2)c1 | 3.44 | 3.82 | 3.16 | 8.28 | 30.4 | 3.73 | > 100 |  | 3.51 | 1.73 | 1.57 | 1.76 | 2.7 | 2.18 | 5.05 | 2.23 | 1.9 | > 100 | 1.78 | 
CC1(C)N=C(N)N=C(N)N1c1ccc(OCC(=O)Nc2ccc(S(=O)(=O)F)cc2Cl)c(Cl)c1 | > 100 |  | > 100 | > 100 | > 100 | > 100 | > 100 | > 100 | > 100 | > 100 |  | 5.57 | 17.5 | 61.1 | > 100 | 0.277 | 4.15 | 4.63 | 5.73 | 7.09
COc1cc(-c2oc3c(OC)c(O)c(OC)c(O)c3c(=O)c2OC)cc(OC)c1OC | > 100 |  | > 100 |  | > 100 | > 100 | > 100 | 81.8 | > 100 |  |  |  |  |  | > 100 |  |  |  |  | 
C#CN1C(=O)c2c(c(-c3ccccc3)c(-c3ccc(Oc4ccc(-c5c(-c6ccccc6)c6c(c(-c7ccccc7)c5-c5ccccc5)C(=O)N(C#C)C6=O)cc4)cc3)c(-c3ccccc3)c2-c2ccccc2)C1=O | > 100 | > 100 | > 100 | > 100 | > 100 | > 100 | > 100 | > 100 | > 100 |  |  |  |  |  |  |  |  |  |  | 
CCN1CCN(Cc2ccc(NC(=O)Nc3nc(-c4cc(OC)c(OC)c(OC)c4)cs3)cc2C(F)(F)F)CC1 | 5.13 | 4.23 | 4.1 | 2.84 | 6.07 | 3.55 | 3.35 | 3.13 | 2.81 | 1.47 | 1.23 | 1.91 | 1.41 |  |  | 1.87 | 1.41 | 1.65 | 1.37 | 1.65
CC1(C)CC[C@]23CC[C@]4(C)[C@H](CC[C@@H]5[C@@]6(C)CCCNC(C)(C)[C@@H]6CC[C@]54C)[C@H]2[C@H]1OC3 | 3.12 |  | 3.08 | 2.98 | 6.73 | 2.68 |  | 3.77 | 3.23 | 1.65 |  | 1.71 | 1.56 |  |  | 2.32 | 1.31 |  | 1.74 | 1.9
COc1ccc(OC(=O)N2C/C(=C\c3ccccc3)C(=O)/C(=C/c3ccccc3)C2)cc1 | 23.5 | 40.1 | 14.4 | 8.71 | 6.73 | 9.23 | 4.18 | 5.23 | 8.87 |  |  |  |  |  |  |  |  |  |  | 
O=C(O)C1=Cc2cccc3cccc(c23)C1=O | > 100 |  | > 100 | > 100 | > 100 | > 100 | > 100 | > 100 | > 100 |  |  |  |  |  |  |  |  |  |  | 
CNC(=O)/C=C/C1=CN2C(=O)c3ccc(C)c(O)c3NC(OC)C2C1 (stereo not given) | 0.0244 |  |  | < 0.01 | > 4.64 | 4.48 | < 0.0183 | < 0.0169 | 1.67 |  |  |  |  |  | < 0.0323 |  |  |  |  | 

Reference: PubChem BioAssay (NCI)
